Data as given in the supplement of paper PMC10307832.

Experiments:
Assay in all cases: relative viability (nuclei count vs DMSO), 5 days (fraction); higher = more cells survive
[1] = compound: C/C(=N\NC(=S)N1CCC1)/C2=CC=CC=N2 + COc1cccc2cc(-c3nc([C@H]4CC[C@H](C(=O)O)CC4)n4ncnc(N)c34)[nH]c12 [OSI-027] (partner 0.5 µM)
Method in brief: (§1)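 Relative viability equals treated-well nuclei counts divided by vehicle-well nuclei counts. Counts came from 4× images of lung cancer cell lines grown in 1536-well plates for 5 days after pin-tool dosing on the day after seeding. Dosing used one drug alone or a fixed anchor-drug dose plus five library-drug doses (not always all listed) in √10 steps, and values are medians of duplicate plates.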

[2] = compound: C/C(=N\NC(=S)N1CCC1)/C2=CC=CC=N2 + C[C@@H](Oc1cc(-c2cnn(C3CCNCC3)c2)cnc1N)c1c(Cl)ccc(F)c1Cl [Crizotinib] (partner 1 µM)
Method in brief: as §1

[3] = compound: C/C(=N\NC(=S)N1CCC1)/C2=CC=CC=N2 + C[C@]1(O)C[C@@H](c2nc(-c3ccc4ccc(-c5ccccc5)nc4c3)c3c(N)nccn32)C1 [Linsitinib] (partner 1 µM)
Method in brief: as §1

[4] = compound: C/C(=N\NC(=S)N1CCC1)/C2=CC=CC=N2 + Cc1cc(Nc2cc(N3CCN(C)CC3)nc(Sc3ccc(NC(=O)C4CC4)cc3)n2)n[nH]1 [Tozasertib] (partner 0.1 µM)
Method in brief: as §1

Row | Cell Line | relative viability ([1]; first compound 0.05 µM) | relative viability ([1]; first compound 0.1581 µM) | relative viability ([1]; first compound 0.5 µM) | relative viability ([1]; first compound 1.581 µM) | relative viability ([1]; first compound 5 µM) | relative viability ([2]; first compound 0.05 µM) | relative viability ([2]; first compound 0.1581 µM) | relative viability ([2]; first compound 0.5 µM) | relative viability ([2]; first compound 1.581 µM) | relative viability ([2]; first compound 5 µM) | relative viability ([3]; first compound 0.05 µM) | relative viability ([3]; first compound 0.1581 µM) | relative viability ([3]; first compound 0.5 µM) | relative viability ([3]; first compound 1.581 µM) | relative viability ([3]; first compound 5 µM) | relative viability ([4]; first compound 0.05 µM) | relative viability ([4]; first compound 0.1581 µM) | relative viability ([4]; first compound 0.5 µM) | relative viability ([4]; first compound 1.581 µM) | relative viability ([4]; first compound 5 µM)
1 | NCI-H441 | 0.181 | 0.173 | 0.16 | 0.143 | 0.168 | 0.241 | 0.175 | 0.134 | 0.11 | 0.128 | 0.145 | 0.15 | 0.117 | 0.0833 | 0.108 | 0.294 | 0.229 | 0.159 | 0.168 | 0.195
2 | NCI-H1793 | 0.128 | 0.176 | 0.159 | 0.153 | 0.142 |  |  |  |  |  | 0.22 | 0.233 | 0.132 | 0.142 | 0.167 | 0.164 | 0.209 | 0.152 | 0.136 | 0.126
3 | NCI-H23 | 0.136 | 0.127 | 0.154 | 0.137 | 0.143 | 0.134 | 0.15 | 0.129 | 0.105 | 0.114 | 0.134 | 0.196 | 0.13 | 0.124 | 0.151 | 0.122 | 0.172 | 0.119 | 0.112 | 0.133
4 | HARA | 0.0966 | 0.0611 | 0.0659 | 0.0562 | 0.0621 | 0.361 | 0.227 | 0.152 | 0.115 | 0.0965 | 0.212 | 0.0896 | 0.163 | 0.109 | 0.08 | 0.0547 | 0.0677 | 0.0627 | 0.0539 | 0.0645
5 | NCI-H1792 | 0.417 | 0.301 | 0.25 | 0.248 | 0.205 | 0.38 | 0.453 | 0.245 | 0.186 | 0.108 | 0.366 | 0.261 | 0.119 | 0.115 | 0.066 |  |  |  |  | 
6 | NCI-H1703 |  |  |  |  |  | 0.15 | 0.103 | 0.0957 | 0.115 | 0.0425 | 0.0702 | 0.0548 | 0.068 | 0.0799 | 0.121 |  |  |  |  | 
7 | NCI-H2342 | 0.288 | 0.263 | 0.27 | 0.264 | 0.262 |  |  |  |  |  |  |  |  |  |  | 0.229 | 0.264 | 0.263 | 0.219 | 0.247
8 | CAL-12T | 0.133 | 0.126 | 0.145 | 0.105 | 0.147 | 0.106 | 0.0871 | 0.12 | 0.103 | 0.0896 | 0.167 | 0.165 | 0.13 | 0.16 | 0.142 | 0.128 | 0.12 | 0.131 | 0.107 | 0.113
9 | NCI-H727 | 0.229 | 0.258 | 0.289 | 0.244 | 0.364 | 0.193 | 0.145 | 0.138 | 0.179 | 0.157 | 0.203 | 0.115 | 0.213 | 0.222 | 0.238 | 0.28 | 0.311 | 0.257 | 0.159 | 0.261
10 | NCI-H2085 | 0.276 | 0.214 | 0.255 | 0.24 | 0.187 | 0.269 | 0.236 | 0.25 | 0.219 | 0.225 | 0.222 | 0.307 | 0.242 | 0.223 | 0.215 | 0.372 | 0.366 | 0.388 | 0.315 | 0.315
11 | NCI-H1395 | 0.291 | 0.388 | 0.31 | 0.29 | 0.364 |  |  |  |  |  | 0.374 | 0.336 | 0.307 | 0.353 | 0.36 | 0.389 | 0.347 | 0.359 | 0.34 | 0.328
12 | NCI-H1648 | 0.309 | 0.279 | 0.351 | 0.314 | 0.307 |  |  |  |  |  |  |  |  |  |  | 0.275 | 0.216 | 0.229 | 0.309 | 0.233
13 | NCI-H460 | 0.0284 | 0.0249 | 0.0234 | 0.0201 | 0.0147 | 0.0177 | 0.0116 | 0.014 | 0.0184 | 0.0064 | 0.0136 | 0.0148 | 0.0172 | 0.0108 | 0.005 | 0.0816 | 0.0449 | 0.0431 | 0.0348 | 0.0095
14 | A549 |  |  |  |  |  | 0.0427 | 0.0518 | 0.0568 | 0.044 | 0.0637 | 0.083 | 0.0782 | 0.0623 | 0.0706 | 0.053 |  |  |  |  | 
15 | IA-LM |  |  |  |  |  | 0.0891 | 0.0621 | 0.0599 | 0.0518 | 0.0471 | 0.0757 | 0.0841 | 0.0585 | 0.0612 | 0.0387 |  |  |  |  | 
16 | EKVX | 0.12 | 0.122 | 0.11 | 0.111 | 0.146 | 0.142 | 0.159 | 0.121 | 0.137 | 0.159 | 0.141 | 0.122 | 0.0907 | 0.135 | 0.141 | 0.131 | 0.108 | 0.101 | 0.103 | 0.12
17 | ChaGo-K-1 | 0.15 | 0.168 | 0.177 | 0.163 | 0.165 | 0.34 | 0.339 | 0.258 | 0.312 | 0.279 |  |  |  |  |  | 0.141 | 0.154 | 0.17 | 0.151 | 0.168
18 | NCI-H1755 | 0.292 | 0.288 | 0.287 | 0.273 | 0.228 | 0.753 | 0.664 | 0.16 | 0.174 | 0.176 | 0.528 | 0.959 | 0.194 | 0.22 | 0.215 | 0.465 | 0.305 | 0.213 | 0.278 | 0.258
19 | NCI-H2228 | 0.116 | 0.152 | 0.207 |  | 0.0944 | 0.169 | 0.213 | 0.262 | 0.141 | 0.149 | 0.179 | 0.273 | 0.233 | 0.144 | 0.213 | 0.0977 | 0.114 | 0.126 |  | 0.116
20 | NCI-H2087 | 0.132 | 0.14 | 0.143 | 0.122 | 0.0904 | 0.323 | 0.274 | 0.284 | 0.187 | 0.171 | 0.305 | 0.37 | 0.301 | 0.244 | 0.178 | 0.0992 | 0.0962 | 0.114 | 0.0938 | 0.0874
